For 19 compounds, IC50, Ki and Activity results are on record in ChEMBL document CHEMBL4673389 (ACS Med Chem Lett, 2021).

Each structure is given as a SMILES string. Active and inactive are the calls of the source. The calls are words filed in the database; no cut-off is given here.

For test [1], the target named is T1, Protein cereblon (Homo sapiens, UniProt Q96SW2). Kind of test: Binding affinity to human CRBN-thalidomide binding domain expressed in Escherichia coli by measuring baseline corrected normalized fluorescence by MST based assay.
The target in test [2] is T1, Protein cereblon. Briefly: Competitive binding affinity to human CRBN-thalidomide binding domain expressed in Escherichia coli by FRET assay.
The target in a further test is T2, Cereblon isoform 4 (Magnetospirillum gryphiswaldense, UniProt A4TVL0).
T2 sequence (A4TVL0 whole entry): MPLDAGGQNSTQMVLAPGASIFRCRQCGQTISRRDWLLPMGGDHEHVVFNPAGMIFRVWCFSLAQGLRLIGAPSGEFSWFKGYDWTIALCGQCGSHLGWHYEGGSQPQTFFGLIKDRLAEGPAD
Kind of test: Binding affinity to Magnetospirillum gryphiswaldense cereblon isoform 4 by measuring baseline corrected normalized fluorescence by MST based assay.

As usually defined, the IC50 is the midpoint of a concentration-inhibition curve. A higher IC50 goes with a need for much substance. For the compound `O=c1ccn([C@@H]2O[C@H](COP(=O)(O)O)[C@@H](O)[C@H]2O)c(=O)[nH]1`, the IC50 at Protein cereblon [1] was above 5000 µM. Consider `O=C1CNCN1`, for which the IC50 on Protein cereblon [1] is above 5000 µM. Usually Ki stands for a measure of affinity in units of concentration, obtained from inhibition or displacement. Low readings indicate tighter binding, high ones weaker binding. As to `NN1CC(=O)NC1=O`, at Protein cereblon [1], the IC50 stood at 447 µM and the Ki came out at 229 µM. On Protein cereblon [1], `CN1CC(=O)NC1=O` had a half-maximal inhibitory concentration (IC50) of 137 µM and a Ki of 67.8 µM. The corresponding values for `Nn1ccc(=O)[nH]c1=O` are 84.8 µM and 40.7 µM. For the compound `O=C1CN(/N=C/c2ccc([N+](=O)[O-])o2)C(=O)N1`, the result on Protein cereblon [1] was inactive. Regarding `O=C1CN(/N=C/c2ccccc2)C(=O)N1`, the result on Protein cereblon [1] was inactive.

Regarding `O=C1CN(/N=C/c2ccccc2[N+](=O)[O-])C(=O)N1`, the result on Protein cereblon [1] was inactive. Still for that read-out and setting: in the case of `O=C1CN(/N=C/c2ncc(-c3ccc(Br)cc3)o2)C(=O)N1` it was “inactive”. As to `COc1c(-c2ccc3cc(NS(C)(=O)=O)ccc3c2)cc(-n2ccc(=O)[nH]c2=O)cc1C(C)(C)C` [DASABUVIR], at Protein cereblon [1], the IC50 turned out to be 15.6 µM and affinity was put at a Ki of 4.71 µM. Compound `C[S+](C)[O-]` [DIMETHYL SULFOXIDE] showed an inhibition constant Ki at Protein cereblon [2] of 137 µM. `O=C1CN(/N=C/C=C/c2ccc([N+](=O)[O-])o2)C(=O)N1` [FURAZIDIN] displayed an IC50 at Protein cereblon [1] above 1000 µM. As for `O=C1CNC(=O)N1` [HYDANTOIN], on Protein cereblon [1], the half-inhibitory concentration (IC50) is 421 µM and the inhibition constant (Ki) was 216 µM. At Protein cereblon [1], `COc1ccc(C2CNC(=O)C2)cc1OC1CCCC1` (stereo unspecified) [ROLIPRAM] displayed an IC50 of 202 µM and a Ki of 102 µM. Take `CC(C)OC(=O)[C@H](C)N[P@](=O)(OC[C@H]1O[C@@H](n2ccc(=O)[nH]c2=O)[C@](C)(F)[C@@H]1O)Oc1ccccc1` [SOFOSBUVIR]: the half-maximal inhibitory concentration (IC50) at Protein cereblon [1] is above 1000 µM. For the compound `O=C1CCC(=O)N1` [SUCCINIMIDE], the half-inhibitory concentration (IC50) was 3.53 µM at Cereblon isoform 4 and 22.3 µM on Protein cereblon [1]. Moreover, the inhibition constant Ki on Cereblon isoform 4 came to 0.642 µM; on Protein cereblon [1], 8.19 µM. For the compound `O=C1CNC(=S)N1` [THIOHYDANTOIN], on Protein cereblon [1], the half-maximal inhibitory concentration (IC50) was 332 µM and the inhibition constant Ki was 169 µM. Regarding `O=c1cc[nH]c(=O)[nH]1` [URACIL], at Protein cereblon [1], the concentration for half-maximal inhibition (IC50) is 415 µM and the inhibition constant (Ki) came to 212 µM. At Protein cereblon [1], `O=c1ccn([C@@H]2O[C@H](CO)[C@@H](O)[C@H]2O)c(=O)[nH]1` [URIDINE] returned a half-maximal inhibitory concentration (IC50) of 757 µM and a Ki of 390 µM.
